Values quoted from earlier work as cited in article PMC9854340 (RSC Advances, 2023).

Columns and labels:
[1] = folding square to folded form; CH3CN-d3; van't Hoff plot; previous report
[2] = tested on: HL-60 human myeloblastic leukemia cells; conditions: HL-60 cells, MTT; data taken from a previous report

Question: Which “ΔH°” value [1] does the source give for Ascidiacyclamide [Peptide 1a] here?
Answer: -2.28 kcal/mol

Question: And the “ΔS°” value [1]?
Answer: -0.009417 kcal/mol

Question: And the ED50 [2]?
Answer: 32.9 ± 0.9 µg/mL
